# According to patent US12448389B2, “BRM targeting compounds and associated methods of use” (Prelude Therapeutics Incorporated, priority 2020, dated 2025):
# Experiments:
# SMARCA2-HiBiT = biological target: T1, SMARCA2-HiBiT (Homo sapiens, UniProt P51531); test: SMARCA2 HiBiT degradation assay in HeLa cells; type: cell-based; conditions: 18 hours incubation; for DC50: read-out: HeLa_HiBit-SM2 DC50; for Dmax: HeLa, read-out: HeLa-HiBit-SM2 Dmax (%)
# T1 construct: SMARCA2-HiBiT knock-in Hela monoclonal cell (CS302366); host or cells: HeLa monoclonal knock-in line (CRISPR HiBiT knock-in at the endogenous locus, heterozygous)
# Protocol: (§1) HiBiT peptide knock-in of SMARCA2 in LgBiT expressing HEK293T cells was performed by CRISPR-mediated tagging system as described Promega. The homozygous HiBiT knock-in on c-terminus SMARCA2 was confirmed by sanger sequence. SMARCA2-HiBiT knock-in Hela monoclonal cell (CS302366) and SMARCA4-HiBiT knock-in Hela monoclonal cell (CS3023226) were purchased from Promega. The heterozygous HiBiT-knock-in was confirmed by sanger sequence in both SMARCA2-HiBiT and SMARCA4-HiBiT monoclonal cells.
# (§2) SMARCA2 HiBiT and SMARCA4 HiBiT Degradation Assay in HeLa Cells
# (§3) Dispense 10 ul aliquot of prepared Hela-SMARCA2-HiBiT or Hela-SMARCA4-HiBiT cells (1:1 ratio of cells:Trypan Blue (#1450013, Bio-Rad)) onto cell counting slide (#145-0011, Bio-Rad) and obtain cell density and cell viability using cell counter (TC20, Bio-Rad). Remove appropriate volume of resuspended cells from culture flask to accommodate 2500 cells/well @20 μL/well. Transfer Hela-HiBiT cells to 50 mL conical (#430290, Corning). Spin down at 1000 rpm for 5 min using tabletop centrifuge (SPINCHRON 15, Beckman). Discard supernatant and resuspend cell pellet in modified EMEM (#30-2003, ATCC) cell culture media containing 10% FBS (F2422-500ML, Sigma), and 1×Penicillin/Streptomycin (200 g/L) (30-002-CI, Corning) to a cell density of 125,000 cells/mL. Dispense 20 μL of resuspended Hela-HiBit cells per well in 384-well TC treated plate (#12-565-343, Thermo Scientific) using standard cassette (#50950372, Thermo Scientific) on Multidrop Combi (#5840310, Thermo Scientific) inside laminar flow cabinet. Dispense test compounds onto plates using digital liquid dispenser (D300E, Tecan). Incubate plates in humidified tissue culture incubator @37° C. for 18 hours. Add 20 μL of prepared Nano-Glo® HiBiT Lytic detection buffer (N3050, Promega) to each well of 384-well plate using small tube cassette (#24073295, Thermo Scientific) on Multidrop Combi, incubate @RT for 30-60 min. Read plates on microplate reader (Envision 2105, PerkinElmer) using 384 well Ultra-Sensitive luminescence mode. Raw data files and compound information reports are swept into centralized data lake and deconvoluted using automated scripts designed by TetraScience, Inc. Data analysis, curve-fitting and reporting done in Dotmatics Informatics Suite using Screening Ultra module.
# SMARCA4-HiBiT = biological target: T2, SMARCA4-HiBiT (Homo sapiens, UniProt P51532); test: SMARCA4 HiBiT degradation assay in HeLa cells; type: cell-based; conditions: 18 hours incubation; for DC50: read-out: HeLa-HiBit-SM4 DC50; for Dmax: HeLa, read-out: HeLa-HiBit-SM4 Dmax (%)
# T2 construct: SMARCA4-HiBiT knock-in Hela monoclonal cell (CS3023226); host or cells: HeLa monoclonal knock-in line (CRISPR HiBiT knock-in at the endogenous locus, heterozygous)
# Protocol: as §1, §2, §3
# T1 sequence (P51531 whole entry): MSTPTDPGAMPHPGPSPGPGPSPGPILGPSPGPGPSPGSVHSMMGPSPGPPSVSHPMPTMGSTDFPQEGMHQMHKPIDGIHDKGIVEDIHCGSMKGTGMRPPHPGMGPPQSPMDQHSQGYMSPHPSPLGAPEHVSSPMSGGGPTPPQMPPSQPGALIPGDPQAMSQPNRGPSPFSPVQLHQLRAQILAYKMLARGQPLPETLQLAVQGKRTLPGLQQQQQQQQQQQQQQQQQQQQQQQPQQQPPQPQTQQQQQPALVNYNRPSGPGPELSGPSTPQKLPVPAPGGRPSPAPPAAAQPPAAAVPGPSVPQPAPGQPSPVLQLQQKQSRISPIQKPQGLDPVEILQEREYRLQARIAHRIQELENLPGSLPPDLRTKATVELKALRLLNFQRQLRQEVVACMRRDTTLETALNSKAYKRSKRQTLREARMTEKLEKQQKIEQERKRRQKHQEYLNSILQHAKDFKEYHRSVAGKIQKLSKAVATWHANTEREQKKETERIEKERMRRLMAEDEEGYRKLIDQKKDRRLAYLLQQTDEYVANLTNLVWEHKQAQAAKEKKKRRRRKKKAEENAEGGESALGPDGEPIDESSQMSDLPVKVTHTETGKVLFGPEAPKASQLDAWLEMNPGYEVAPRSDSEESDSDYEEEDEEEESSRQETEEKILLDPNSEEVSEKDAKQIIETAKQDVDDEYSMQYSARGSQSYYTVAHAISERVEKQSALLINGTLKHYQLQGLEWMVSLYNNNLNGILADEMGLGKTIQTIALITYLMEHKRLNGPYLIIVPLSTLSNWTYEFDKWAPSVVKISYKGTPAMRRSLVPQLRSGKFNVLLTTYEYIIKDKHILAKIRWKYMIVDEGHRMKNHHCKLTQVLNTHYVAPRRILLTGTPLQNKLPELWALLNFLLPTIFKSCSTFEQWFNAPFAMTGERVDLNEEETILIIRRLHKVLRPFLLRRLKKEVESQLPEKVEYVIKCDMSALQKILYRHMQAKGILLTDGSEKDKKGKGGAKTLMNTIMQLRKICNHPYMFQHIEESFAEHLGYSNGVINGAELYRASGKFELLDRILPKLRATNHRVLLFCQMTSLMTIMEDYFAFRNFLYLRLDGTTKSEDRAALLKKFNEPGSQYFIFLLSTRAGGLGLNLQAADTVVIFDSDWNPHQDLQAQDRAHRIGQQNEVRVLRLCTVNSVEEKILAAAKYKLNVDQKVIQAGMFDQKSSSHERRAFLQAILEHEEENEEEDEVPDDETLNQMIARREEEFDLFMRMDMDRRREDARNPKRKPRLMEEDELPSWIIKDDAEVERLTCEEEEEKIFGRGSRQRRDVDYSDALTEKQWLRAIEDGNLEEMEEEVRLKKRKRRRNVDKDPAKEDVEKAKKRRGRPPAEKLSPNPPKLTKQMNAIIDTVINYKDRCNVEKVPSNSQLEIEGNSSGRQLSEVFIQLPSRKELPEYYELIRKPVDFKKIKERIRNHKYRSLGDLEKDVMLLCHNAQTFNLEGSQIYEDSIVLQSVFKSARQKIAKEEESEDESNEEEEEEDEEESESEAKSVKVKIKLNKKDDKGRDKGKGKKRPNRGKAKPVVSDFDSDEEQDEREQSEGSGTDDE
# T2 sequence (P51532 whole entry): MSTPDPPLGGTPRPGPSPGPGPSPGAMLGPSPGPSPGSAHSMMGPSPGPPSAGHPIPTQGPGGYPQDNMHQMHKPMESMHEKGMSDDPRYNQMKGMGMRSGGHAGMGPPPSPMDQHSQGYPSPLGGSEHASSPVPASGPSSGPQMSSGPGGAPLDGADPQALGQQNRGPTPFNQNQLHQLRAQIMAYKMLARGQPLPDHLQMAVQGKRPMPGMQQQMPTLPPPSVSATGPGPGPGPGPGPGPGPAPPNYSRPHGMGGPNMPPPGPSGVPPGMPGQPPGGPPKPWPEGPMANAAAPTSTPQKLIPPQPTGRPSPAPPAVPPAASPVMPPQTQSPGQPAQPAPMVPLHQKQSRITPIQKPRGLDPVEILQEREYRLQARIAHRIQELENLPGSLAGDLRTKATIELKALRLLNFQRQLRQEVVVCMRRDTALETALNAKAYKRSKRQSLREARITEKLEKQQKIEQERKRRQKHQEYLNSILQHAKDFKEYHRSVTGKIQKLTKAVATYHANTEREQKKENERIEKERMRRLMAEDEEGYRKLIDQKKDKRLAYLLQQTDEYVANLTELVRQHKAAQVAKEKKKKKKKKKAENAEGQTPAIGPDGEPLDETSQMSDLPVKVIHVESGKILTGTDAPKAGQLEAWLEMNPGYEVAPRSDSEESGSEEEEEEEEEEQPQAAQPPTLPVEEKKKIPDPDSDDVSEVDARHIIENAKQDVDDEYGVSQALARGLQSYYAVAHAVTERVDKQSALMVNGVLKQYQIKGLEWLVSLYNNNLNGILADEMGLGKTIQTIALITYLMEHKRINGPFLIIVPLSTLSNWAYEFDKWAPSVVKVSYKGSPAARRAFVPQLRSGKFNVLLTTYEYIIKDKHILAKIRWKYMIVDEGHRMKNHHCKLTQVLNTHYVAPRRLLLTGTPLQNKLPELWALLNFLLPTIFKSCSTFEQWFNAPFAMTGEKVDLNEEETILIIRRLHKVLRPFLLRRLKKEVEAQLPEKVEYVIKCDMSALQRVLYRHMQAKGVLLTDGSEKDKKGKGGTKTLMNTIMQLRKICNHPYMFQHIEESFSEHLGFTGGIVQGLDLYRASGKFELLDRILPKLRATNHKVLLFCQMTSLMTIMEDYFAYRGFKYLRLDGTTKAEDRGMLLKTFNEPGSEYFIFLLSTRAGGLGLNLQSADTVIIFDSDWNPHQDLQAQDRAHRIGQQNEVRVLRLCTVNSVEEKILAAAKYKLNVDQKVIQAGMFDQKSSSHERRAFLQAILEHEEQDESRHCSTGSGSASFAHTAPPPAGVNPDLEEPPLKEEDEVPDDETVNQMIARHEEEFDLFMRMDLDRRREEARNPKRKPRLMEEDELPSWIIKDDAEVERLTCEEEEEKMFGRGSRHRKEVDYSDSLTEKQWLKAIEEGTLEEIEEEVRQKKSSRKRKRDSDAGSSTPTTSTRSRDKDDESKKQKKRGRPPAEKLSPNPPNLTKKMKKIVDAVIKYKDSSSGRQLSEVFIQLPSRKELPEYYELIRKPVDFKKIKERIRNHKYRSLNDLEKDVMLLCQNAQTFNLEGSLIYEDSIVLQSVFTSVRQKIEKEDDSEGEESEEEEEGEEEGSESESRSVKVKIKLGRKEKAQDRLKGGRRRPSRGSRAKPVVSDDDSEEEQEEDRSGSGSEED
DC50 (SMARCA2-HiBiT) [µM],Dmax (SMARCA2-HiBiT) [%],DC50 (SMARCA4-HiBiT) [µM],Dmax (SMARCA4-HiBiT) [%],HeLa-HiBit-SM2 Dmax (%) (SMARCA2-HiBiT),HeLa-HiBit-SM4 Dmax (%) (SMARCA4-HiBiT),Compound
< 0.01,> 85,< 0.01,75 to 85,,,"O=C1CCC(N2C(=O)c3ccc(N4CCC(CN5CC(CN6CCN7c8cc(-c9ccccc9O)nnc8NC[C@H]7C6)C5)CC4)cc3C2=O)C(=O)N1 (stereo partly drawn) [Example 36, 2-(2,6-dioxopiperidin-3-yl)-5-(4-((3-(((S)-2-(2-hydroxyphenyl)-5,6,6a,7,9,10-hexahydro-8H-pyrazino[1′,2′:4,5]pyrazino[2,3-c]pyridazin-8-yl)methyl)azetidin-1-yl)methyl)piperidin-1-yl)isoindoline-1,3-dione]"
< 0.01,75 to 85,< 0.01,75 to 85,,,"CC1CN(CC2CCN(c3cc4c(cc3F)C(=O)N(C3CCC(=O)NC3=O)C4=O)CC2)CCC1CN1CCN2c3cc(-c4ccccc4O)nnc3NC[C@H]2C1 (stereo partly drawn) [Example 165, 2-(2,6-dioxopiperidin-3-yl)-5-fluoro-6-[4-[[4-[[(10S)-4-(2-hydroxyphenyl)-1,5,6,8,12-pentazatricyclo[8.4.0.02,7]tetradeca-2,4,6-trien-12-yl]methyl]-3-methylpiperidin-1-yl]methyl]piperidin-1-yl] isoindole-1,3-dione]"
< 0.01,75 to 85,0.01 to 0.1,75 to 85,,,"C[C@H]1CN2c3cc(-c4ccccc4O)nnc3NC[C@H]2CN1C[C@H]1[C@@H]2CN(C[C@H]3CCN(c4ccc5c(c4)C(=O)N(C4CCC(=O)NC4=O)C5)C[C@@H]3F)C[C@@H]21 (stereo partly drawn) [Example 204, 3-[5-[(3R,4R)-3-fluoro-4-[[(1S,5R)-6-[[(10S,13S)-4-(2-hydroxyphenyl)-13-methyl-1,5,6,8,12-pentazatricyclo[8.4.0.02,7]tetradeca-2,4,6-trien-12-yl]methyl]-3-azabicyclo[3.1.0]hexan-3-yl]methyl]piperidin-1-yl]-3-oxo-1H-isoindol-2-yl]piperidine-2,6-dione]"
< 0.01,75 to 85,< 0.01,50 to 75,,,"CN(CCN1CCC(CN2CCN3c4cc(-c5ccccc5O)nnc4NC[C@H]3C2)CC1)c1ccc2c(c1)C(=O)N(C1CCC(=O)NC1=O)C2=O (stereo partly drawn) [Example 246, 2-(2,6-dioxopiperidin-3-yl)-5-((2-(4-(((S)-2-(2-hydroxyphenyl)-5,6,6a,7,9,10-hexahydro-8H-pyrazino[1′,2′:4,5]pyrazino[2,3-c]pyridazin-8-yl)methyl)piperidin-1-yl)ethyl)(methyl)amino)isoindoline-1,3-dione]"
< 0.01,75 to 85,< 0.01,50 to 75,,,"O=C1CCC(N2C(=O)c3ccc(N4CC[C@H](CN5C[C@@H]6[C@H](C5)[C@H]6CN5CCN6c7cc(-c8ccccc8O)nnc7NC[C@H]6C5)[C@H](F)C4)cc3C2=O)C(=O)N1 (stereo partly drawn) [Example 186, 2-(2,6-dioxopiperidin-3-yl)-5-[(3S,4R)-3-fluoro-4-[[(1S,5R)-6-[[(10S)-4-(2-hydroxyphenyl)-1,5,6,8,12-pentazatricyclo[8.4.0.02,7]tetradeca-2(7),3,5-trien-12-yl]methyl]-3-azabicyclo[3.1.0]hexan-3-yl]methyl]piperidin-1-yl]isoindole-1,3-dione]"
< 0.01,50 to 75,< 0.01,50 to 75,,,"CC1CN(CCCC2CCN(c3cccc4c3C(=O)N(C3CCC(=O)NC3=O)C4=O)CC2)CCC1N1CCN2c3cc(-c4ccccc4O)nnc3NC[C@H]2C1 (stereo partly drawn) [Example 124, 2-(2,6-dioxopiperidin-3-yl)-4-(4-(3-(4-((S)-2-(2-hydroxyphenyl)-5,6,6a,7,9,10-hexahydro-811-pyrazino[1′,2′:4,5]pyrazino[2,3-c]pyridazin-8-yl)-3-methylpiperidin-1-yl)propyl)piperidin-1-yl) isoindoline-1,3-dione]"
< 0.01,> 85,< 0.01,75 to 85,,,"C[C@@H]1CN(CC2CCN(c3ccc4c(c3)C(=O)N(C3CCC(=O)NC3=O)C4)CC2)CCN1C(=O)N1CCN2c3cc(-c4ccccc4O)nnc3NC[C@H]2C1 (stereo partly drawn) [Example 114, 3-(6-(4-(((R)-4-((S)-2-(2-hydroxyphenyl)-6,6a,7,8,9,10-hexahydro-5H-pyrazino[1′,2′:4,5]pyrazino[2,3-c]pyridazine-8-carbonyl)-3-methylpiperazin-1-yl)methyl)piperidin-1-yl)-1-oxoisoindolin-2-yl)piperidine-2,6-dione]"
< 0.01,50 to 75,0.01 to 0.1,50 to 75,,,"O=C1CCC(N2C(=O)c3ccc(N4CCC(N5C[C@@H]6[C@@H](CN7CCN8c9cc(-c%10ccccc%10O)nnc9NC[C@H]8C7)[C@@H]6C5)CC4)cc3C2=O)C(=O)N1 (stereo partly drawn) [Example 90, 2-(2,6-dioxopiperidin-3-yl)-5-(4-((1R,5S,6s)-6-(((S)-2-(2-hydroxyphenyl)-5,6,6a,7,9,10-hexahydro-8H-pyrazino[1′,2′:4,5]pyrazino[2,3-c]pyridazin-8-yl)methyl)-3-azabicyclo[3.1.0]hexan-3-yl)piperidin-1-yl)isoindoline-1,3-dione]"
< 0.01,> 85,< 0.01,75 to 85,,,"O=C1CCC(N2Cc3cc(N4CCC(CN5CCC(OC(=O)N6CCN7c8cc(-c9ccccc9O)nnc8NC[C@H]7C6)CC5)CC4)ccc3C2=O)C(=O)N1 (stereo partly drawn) [Example 83, 1-((1-(2-(2,6-dioxopiperidin-3-yl)-1-oxoisoindolin-5-yl)piperidin-4-yl)methyl)piperidin-4-yl (6aS)-2-(2-hydroxyphenyl)-5,6,6a,7,9,10-hexahydro-8H-pyrazino[1′,2′:4,5]pyrazino[2,3-c]pyridazine-8-carboxylate]"
< 0.01,75 to 85,< 0.01,75 to 85,,,"O=C1CCC(N2C(=O)c3ccc(C4CCN(CC5CCN(C(=O)N6CCN7c8cc(-c9ccccc9O)nnc8NC[C@H]7C6)CC5)CC4)cc3C2=O)C(=O)N1 (stereo partly drawn) [Example 144, 2-(2,6-dioxopiperidin-3-yl)-5-(1-((1-((S)-2-(2-hydroxyphenyl)-6,6a,7,8,9,10-hexahydro-5H-pyrazino[1′,2′:4,5]pyrazino[2,3-c]pyridazine-8-carbonyl)piperidin-4-yl)methyl)piperidin-4-yl)isoindoline-1,3-dione]"
< 0.01,50 to 75,0.01 to 0.1,75 to 85,,,"O=C1CCC(N2C(=O)c3ccc(NCCN4C[C@@H]5[C@H](C4)[C@H]5CN4CCN5c6cc(-c7ccccc7O)nnc6NC[C@H]5C4)cc3C2=O)C(=O)N1 (stereo partly drawn) [Example 153, 2-(2,6-dioxopiperidin-3-yl)-5-((2-((1R,5S,6r)-6-(((S)-2-(2-hydroxyphenyl)-5,6,6a,7,9,10-hexahydro-8H-pyrazino[1′,2′:4,5]pyrazino[2,3-c]pyridazin-8-yl)methyl)-3-azabicyclo[3.1.0]hexan-3-yl)ethyl)amino)isoindoline-1,3-dione]"
< 0.01,> 85,< 0.01,> 85,,,"O=C1CCC(N2C(=O)c3ccc(N4CCC(CN5CCC(O)(CN6CCN7c8cc(-c9ccccc9O)nnc8NC[C@H]7C6)CC5)CC4)cc3C2=O)C(=O)N1 (stereo partly drawn) [Example 38, 2-(2,6-dioxopiperidin-3-yl)-5-(4-((4-hydroxy-4-(((S)-2-(2-hydroxyphenyl)-5,6,6a,7,9,10-hexahydro-8H-pyrazino[1′,2′:4,5]pyrazino[2,3-c]pyridazin-8-yl)methyl)piperidin-l-yl)methyl)piperidin-1-yl)isoindoline-1,3-dione]"
< 0.01,,< 0.01,,A (A=Dmax>85%),A (A=Dmax>85%),"O=C1CCC(N2C(=O)c3ccc(N4CC[C@H](CN5C[C@@H]6[C@H](C5)[C@H]6CN5CCN6c7cc(-c8cc(F)ccc8O)nnc7NC[C@H]6C5)[C@@H](F)C4)cc3C2=O)C(=O)N1 (stereo partly drawn) [Example 278, 2-(2,6-dioxopiperidin-3-yl)-5-((3R,4R)-3-fluoro-4-(((1R,5S,6R)-6-(((S)-2-(5-fluoro-2-hydroxyphenyl)-5,6,6a,7,9,10-hexahydro-8H-pyrazino[1′,2′:4,5]pyrazino[2,3-c]pyridazin-8-yl)methyl)-3-azabicyclo[3.1.0]hexan-3-yl)methyl)piperidin-1-yl) isoindoline-1,3-dione]"
